Measurements taken from patent US20060154323A1, “Method for obtaining dynamic and structural data pertaining to proteins and protein/ligand complexes” (ProSpect Pharma, priority 2002, published 2006).

Tests used:
[1] = biological target: T1, Mouse Urinary Protein (Mus musculus, UniProt P11588); assay: 13C NMR relaxation (T1, T2) of valine 13CHD2-labeled MUP in absence and presence of ligand; conditions: for T1, Change / T2, Change: Protein vs Bound Protein; for T1, Bound Protein / T2, Bound Protein: 298 K;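 for T1, Bound Protein: unit milliseconds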;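 for T2, Bound Protein: unit milliseconds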
T1 construct: made in house; host or cells: E. coli M15 cells with vector pqe30 MUP
T1 sequence (P11588 19-180): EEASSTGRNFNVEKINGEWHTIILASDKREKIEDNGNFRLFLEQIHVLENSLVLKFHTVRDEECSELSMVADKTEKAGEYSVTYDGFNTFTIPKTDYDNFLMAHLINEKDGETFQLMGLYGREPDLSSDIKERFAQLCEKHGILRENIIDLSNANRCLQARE
Procedure: A 15 mg sample of L-valine-α-D-^12CD(^13CHD2)2 labeled MUP was dissolved in 650 μL phosphate buffered saline (10 mM potassium phosphate; 200 mM sodium chloride), to which was added 50 μL deuterium oxide. ^13C Relaxation rates (R2 and R1) of ^13CHD2 groups were determined using pulse sequences as described in Ishima et al., J. Am. Chem. Soc. 121:11589-11590 (1999). Spectral parameters were as follows: spectral width in the ^13C dimension, 900 Hz; spectral width in the ^1H dimension, 5200 Hz; number of real data points in the ^13C dimension, 128; number of real points in the ^1H dimension, 1408; number of transients per t1 increment, 8; probe temperature, 298 K. Prior to two-dimensional Fourier transformation, free induction decays were apodized with cosine-bell windowing functions according to known methods.
The NMR analysis was then repeated following addition of the small molecule ligand 1 μL of isobutyl pyrazine or 1 μL of isopropyl pyrazine to separate solutions of MUP. The data shown below in Tables I and II and in FIG. 8 were obtained, clearly showing the changes in T1 and T2 values obtained on addition of these small molecule ligands.

[2] = biological target: T2, MUP (Mus musculus, UniProt P11588); assay: 13C-1H HSQC spectra of valine-enriched MUP complexes; conditions: 13C-1H HSQC of complexes with valine-enriched MUP
T2 construct: made in house; host or cells: E. coli M15 cells with vector pqe30 MUP
T2 sequence (P11588 19-180): T1 sequence (P11588 19-180)

[3] = biological target: T3, Major Urinary Protein (Mus musculus, UniProt P11588); assay: S2axis order parameters of valine methyl groups from 600 MHz 13C R1/R2 relaxation of valine-enriched MUP and its complexes; conditions: for S^2axis: MUP-ligand complex, 600 MHz, 30° C., pH 7.0
T3 construct: made in house; host or cells: E. coli M15 cells with vector pqe30 MUP
T3 sequence (P11588 19-180): T1 sequence (P11588 19-180)
Procedure: Samples of [^13C^γ1,^γ2HD2]-U-^2H valine enriched MUP both alone and complexed with 2-methoxy-3-isopropylpyrazine and 2-methoxy-3-isobutylpyrazine were prepared from a single sample at pH 7.0 and a protein concentration of 1 mM. A further sample of methyl-^13C, ^2H enriched MUP was prepared at pH 7.0 and a protein concentration of 0.5 mM. Longitudinal (R1) and transverse (R2) ^13C relaxation rates were determined essentially as described by Ishima et al., J. Am. Chem. Soc. 121:11589-11590, 1999. All spectra were recorded at a proton frequency of 600 MHz and a probe temperature of 30° C. R1 rates were determined with relaxation delay times of 16, 64, 128, 240, 400, 720, 1120, 1600, 2240 and 2880 milliseconds. R2 rates were determined with relaxation delay times of 16, 32, 48, 64, 96, 160, 192, 240 and 288 milliseconds, and an effective field strength of 2 kHz. Relaxation data were fit to a single exponential decay function I=I0exp(−tR), where I0 is the initial resonance intensity, t is the relaxation delay time and R is the relaxation rate (R1 or R2). Relaxation data were fitted to the Lipari-Szabo model-free spectral density of the form: J(ω)=S^2τm/(1+ω^2τ^2m)+(1−S^2)τi/(1+ω^2τi^2), where τi^−1=τM^−1+τe^−1, τM is the overall molecular tumbling correlation time and τe is the effective internal correlation time. See Lipari and Szabo, J. Am. Chem. Soc. 104:4546-4559, 1982. This equation is valid for fast internal motions, τe<<τM, under which conditions the order parameter for methyl CH dipolar relaxation is given by S^2=Saxis^2[P2(cos θH]^2. Saxis^2 is the order parameter of the methyl rotation axis and θH is the angle made by the axis and the CH bond vector. A global rotational correlation time of […] was used for these calculations, according to the previously reported value. Zidek et al., Nature Str. Biol. 6:1118-1121, 1999. Although the valine residues were perdeuterated at non-methyl positions, the protein was otherwise protonated, and dipolar relaxation due to these “external” protons is not negligible for ^13C relaxation. Thus, by analogy with the work of Ishima et al. J. Am. Chem. Soc. 123:6164-6171, 2001, the contribution of these external protons to ^13C R2 values was estimated at 25% from the X-ray coordinates of MUP. Consequently, measured ^13C R^2 rates were multiplied by 0.75 to account for these external dipolar relaxation processes.

[4] = biological target: T2, MUP; assay: Binding of small hydrophobic ligands to MUP (Kd)
[5] = valine methyl 59.HG1 (first line)
[6] = valine methyl 59.HG1 (second line)

- T1, Change ([1]; 12.HG1): −8.387 milliseconds
- T2, Change ([1]; 12.HG1): −8.329 milliseconds
- T1, Change ([1]; 12.HG2): −40.959 milliseconds
- T2, Change ([1]; 12.HG2): −9.198 milliseconds
- T1, Change ([1]; 47.HG1): 2.421 milliseconds
- T2, Change ([1]; 47.HG1): −13.342 milliseconds
- T1, Change ([1]; 47.HG2): −76.984 milliseconds
- T2, Change ([1]; 47.HG2): −4.561 milliseconds
- T1, Change ([1]; 53.HG1): −50.272 milliseconds
- T2, Change ([1]; 53.HG1): −14.174 milliseconds
- T1, Change ([1]; 53.HG2): 8.962 milliseconds
- T2, Change ([1]; 53.HG2): −7.866 milliseconds
- T1, Change ([1]; 59.HG1 (first line)): −91.665 milliseconds
- T2, Change ([1]; 59.HG1 (first line)): −16.574 milliseconds
- T1, Change ([1]; 59.HG1 (second line)): −49.656 milliseconds
- T2, Change ([1]; 59.HG1 (second line)): −6.181 milliseconds
- T1, Change ([1]; 70.HG1): 209.318 milliseconds
- T2, Change ([1]; 70.HG1): −41.741 milliseconds
- T1, Change ([1]; 70.HG2): 86.431 milliseconds
- T2, Change ([1]; 70.HG2): 11.930 milliseconds
- T1, Change ([1]; 82.HG1): −10.201 milliseconds
- T2, Change ([1]; 82.HG1): 10.857 milliseconds
- T1, Change ([1]; 82.HG2): 0.991 milliseconds
- T2, Change ([1]; 82.HG2): 19.924 milliseconds
- contribution of valine side-chains to the entropy of binding ([1]; from relaxation data in the presence of ligand): do not contribute significantly
- T1, Bound Protein ([1]; valine methyl 12.HG1): 1733.309 milliseconds
- T2, Bound Protein ([1]; valine methyl 12.HG1): 161.437 milliseconds
- T1, Bound Protein ([1]; valine methyl 12.HG2): 1509.370 milliseconds
- T2, Bound Protein ([1]; valine methyl 12.HG2): 192.512 milliseconds
- T1, Bound Protein ([1]; valine methyl 47.HG1): 1626.298 milliseconds
- T2, Bound Protein ([1]; valine methyl 47.HG1): 168.574 milliseconds
- T1, Bound Protein ([1]; valine methyl 47.HG2): 1067.605 milliseconds
- T2, Bound Protein ([1]; valine methyl 47.HG2): 155.315 milliseconds
- T1, Bound Protein ([1]; valine methyl 53.HG1): 2283.543 milliseconds
- T2, Bound Protein ([1]; valine methyl 53.HG1): 177.873 milliseconds
- T1, Bound Protein ([1]; valine methyl 53.HG2): 1355.764 milliseconds
- T2, Bound Protein ([1]; valine methyl 53.HG2): 158.149 milliseconds
- T1, Bound Protein [1, 5]: 1374.428 milliseconds
- T2, Bound Protein [1, 5]: 195.222 milliseconds
- T1, Bound Protein [1, 6]: 1572.793 milliseconds
- T2, Bound Protein [1, 6]: 153.897 milliseconds
- T1, Bound Protein ([1]; valine methyl 70.HG1): 1872.254 milliseconds
- T2, Bound Protein ([1]; valine methyl 70.HG1): 162.943 milliseconds
- T1, Bound Protein ([1]; valine methyl 70.HG2): 1077.097 milliseconds
- T2, Bound Protein ([1]; valine methyl 70.HG2): 150.103 milliseconds
- T1, Bound Protein ([1]; valine methyl 82.HG1): 925.102 milliseconds
- T2, Bound Protein ([1]; valine methyl 82.HG1): 213.526 milliseconds
- T1, Bound Protein ([1]; valine methyl 82.HG2): 668.810 milliseconds
- T2, Bound Protein ([1]; valine methyl 82.HG2): 203.529 milliseconds
- shift perturbations of Val 82 γ1 and γ2 correlations [2]: Significant shift perturbations
- changes in Saxis^2 of the six valine residues in MUP upon binding [3]: only minor changes
- S^2axis ([3]; Val-12 C^γ1): 0.90
- S^2axis ([3]; Val-12 C^γ2): 0.69
- S^2axis ([3]; Val-47 C^γ1): 0.84
- S^2axis ([3]; Val-47 C^γ2): 0.90
- S^2axis ([3]; Val-53 C^γ1): 0.80
- S^2axis ([3]; Val-53 C^γ2): 0.85
- S^2axis ([3]; Val-59 C^γ1): 0.68
- S^2axis ([3]; Val-59 C^γ2): 0.86
- S^2axis ([3]; Val-70 C^γ1): 0.85
- S^2axis ([3]; Val-70 C^γ2): 0.77
- S^2axis ([3]; Val-82 C^γ1): 0.50
- S^2axis ([3]; Val-82 C^γ2): 0.48
- contribution of valine side-chains to the entropy of binding ([3]; from computations of Saxis^2 values, free protein and complexes): do not contribute significantly
- Kd [4]: 560 nM
Structure (SMILES): COc1nccnc1C(C)C [2-methoxy-3-isopropylpyrazine]
